Measurements taken from ChEMBL document CHEMBL1201862, “PubChem BioAssay data set” (2004).
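Tested at 5 concentrations; 48 h exposure; 96-well plates; endpoints linearly interpolated, else capped at highest concentration. GI50 is the concentration that inhibits growth by half.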 Activity calls are given as the source filed them. No stated cut-off is given here; in the data, active = GI50 up to about 1.1 µM and inactive = higher.

Columns and labels:
Experiment in all cases: NCI-60 cell line screen, 48 h
HCT-15 = tested on: HCT-15
SW-620 = tested on: SW-620
ACHN = tested on: ACHN
NCI-H522 = tested on: NCI-H522
OVCAR-4 = tested on: OVCAR-4
UACC-62 = tested on: UACC-62
A549 = tested on: A549
MDA-MB-231 = tested on: MDA-MB-231
SN12C = tested on: SN12C
SNB-19 = tested on: SNB-19
SF-539 = tested on: SF-539
SNB-75 = tested on: SNB-75
RPMI-8226 = tested on: RPMI-8226
SF-268 = tested on: SF-268
CCRF-CEM = tested on: CCRF-CEM
HOP-62 = tested on: HOP-62
HCC 2998 = tested on: HCC 2998
T47D = tested on: T47D
NCI-H23 = tested on: NCI-H23
MCF7 = tested on: MCF7
SF-295 = tested on: SF-295
SR = tested on: SR
UO-31 = tested on: UO-31
LOX IMVI = tested on: LOX IMVI
U-251 = tested on: U-251
SK-MEL-2 = tested on: SK-MEL-2
KM12 = tested on: KM12
HCT-116 = tested on: HCT-116
OVCAR-3 = tested on: OVCAR-3
SK-MEL-5 = tested on: SK-MEL-5
SK-OV-3 = tested on: SK-OV-3
OVCAR-5 = tested on: OVCAR-5
OVCAR-8 = tested on: OVCAR-8
COLO 205 = tested on: COLO 205
MOLT-4 = tested on: MOLT-4
NCI-H226 = tested on: NCI-H226
HL-60 = tested on: HL-60
MDA-N = tested on: MDA-N
M14 = tested on: M14
IGROV-1 = tested on: IGROV-1
PC-3 = tested on: PC-3
TK-10 = tested on: TK-10
HOP-92 = tested on: HOP-92
786-0 = tested on: 786-0
K562 = tested on: K562
BT-549 = tested on: BT-549
A498 = tested on: A498
HT-29 = tested on: HT-29
SK-MEL-28 = tested on: SK-MEL-28
Hs-578T = tested on: Hs-578T
CAKI-1 = tested on: CAKI-1
Malme-3M = tested on: Malme-3M
RXF 393 = tested on: RXF 393
NCI-H460 = tested on: NCI-H460
EKVX = tested on: EKVX
MDA-MB-435 = tested on: MDA-MB-435
UACC-257 = tested on: UACC-257
DU-145 = tested on: DU-145
NCI/ADR-RES = tested on: NCI/ADR-RES

With `CC(C)C1=C(O)C(=O)C2=C(C1=O)C(OC=O)C(O)C1C(C)(C)CCCC21C` (stereo not drawn) as the compound, how does the GI50 (HCT-15) read?
The GI50 was 4.04 µM.

What about the GI50 (SW-620) of the same compound?
The GI50 was 3.1 µM (inactive).

And the GI50 (ACHN)?
Its GI50 is 3.87 µM (inactive).

And the GI50 (NCI-H522)?
The GI50 was 10.8 µM (inactive).

What about the GI50 (OVCAR-4) of the same compound?
The GI50 was 10.2 µM (inactive).

What about the GI50 (UACC-62) of the same compound?
The GI50 was 6.19 µM (inactive).

What about the GI50 (A549) of the same compound?
Its GI50 is 14.7 µM (inactive).

And the GI50 (MDA-MB-231)?
Its GI50 is 5.79 µM (inactive).

And the GI50 (SN12C)?
Its GI50 is 10.1 µM (inactive).

What about the GI50 (SNB-19) of the same compound?
Its GI50 is 13.4 µM (inactive).

And the GI50 (SF-539)?
The GI50 was 13.7 µM (inactive).

What about the GI50 (SNB-75) of the same compound?
The GI50 was 10.8 µM (inactive).

And the GI50 (RPMI-8226)?
The GI50 was 2.66 µM (inactive).

And the GI50 (SF-268)?
The GI50 was 10.5 µM (inactive).

What about the GI50 (CCRF-CEM) of the same compound?
The GI50 was 3.27 µM (inactive).

And the GI50 (HOP-62)?
Its GI50 is 37.6 µM (inactive).

What about the GI50 (HCC 2998) of the same compound?
Its GI50 is 6.82 µM (inactive).

What about the GI50 (T47D) of the same compound?
Its GI50 is 8.24 µM (inactive).

What about the GI50 (NCI-H23) of the same compound?
Its GI50 is 7 µM (inactive).

And the GI50 (MCF7)?
Its GI50 is 11.4 µM (inactive).

And the GI50 (SF-295)?
The GI50 was 14.2 µM (inactive).

And the GI50 (SR)?
Its GI50 is 3 µM (inactive).

And the GI50 (UO-31)?
Its GI50 is 5.82 µM (inactive).

What about the GI50 (LOX IMVI) of the same compound?
Its GI50 is 3.33 µM (inactive).

And the GI50 (U-251)?
The GI50 was 4.28 µM (inactive).

What about the GI50 (SK-MEL-2) of the same compound?
The GI50 was 12.1 µM (inactive).

What about the GI50 (KM12) of the same compound?
Its GI50 is 12 µM (inactive).

What about the GI50 (HCT-116) of the same compound?
Its GI50 is 7.73 µM (inactive).

What about the GI50 (OVCAR-3) of the same compound?
Its GI50 is 12.1 µM (inactive).

What about the GI50 (SK-MEL-5) of the same compound?
The GI50 was 3.7 µM (inactive).

What about the GI50 (SK-OV-3) of the same compound?
Its GI50 is 13.4 µM (inactive).

What about the GI50 (OVCAR-5) of the same compound?
The GI50 was 15.8 µM (inactive).

And the GI50 (OVCAR-8)?
Its GI50 is 7.29 µM (inactive).

What about the GI50 (COLO 205) of the same compound?
Its GI50 is 3.54 µM (inactive).

And the GI50 (MOLT-4)?
The GI50 was 2.25 µM (inactive).

And the GI50 (NCI-H226)?
The GI50 was 5.08 µM (inactive).

What about the GI50 (HL-60) of the same compound?
Its GI50 is 3.56 µM (inactive).

And the GI50 (MDA-N)?
Its GI50 is 7.31 µM (inactive).

What about the GI50 (M14) of the same compound?
Its GI50 is 11.9 µM (inactive).

What about the GI50 (IGROV-1) of the same compound?
The GI50 was 10.3 µM (inactive).

What about the GI50 (PC-3) of the same compound?
The GI50 was 11.2 µM (inactive).

And the GI50 (TK-10)?
The GI50 was 13.4 µM (inactive).

What about the GI50 (HOP-92) of the same compound?
The GI50 was 7.46 µM (inactive).

And the GI50 (786-0)?
The GI50 was 4.09 µM (inactive).

What about the GI50 (K562) of the same compound?
The GI50 was 6.35 µM (inactive).

What about the GI50 (BT-549) of the same compound?
The GI50 was 8.36 µM (inactive).

And the GI50 (A498)?
Its GI50 is 14.8 µM (inactive).

And the GI50 (HT-29)?
The GI50 was 11.2 µM (inactive).

What about the GI50 (SK-MEL-28) of the same compound?
Its GI50 is 3.13 µM (inactive).

What about the GI50 (Hs-578T) of the same compound?
The GI50 was 8.51 µM (inactive).

And the GI50 (CAKI-1)?
The GI50 was 4.04 µM (inactive).

And the GI50 (Malme-3M)?
Its GI50 is 7.08 µM (inactive).

What about the GI50 (RXF 393) of the same compound?
Its GI50 is 6.82 µM (inactive).

And the GI50 (NCI-H460)?
The GI50 was 3.22 µM (inactive).

What about the GI50 (EKVX) of the same compound?
The GI50 was 10.1 µM (inactive).

And the GI50 (MDA-MB-435)?
Its GI50 is 2.73 µM (inactive).

What about the GI50 (UACC-257) of the same compound?
Its GI50 is 9.1 µM (inactive).

And the GI50 (DU-145)?
Its GI50 is 5.06 µM (inactive).

Which results are given for `Clc1ccc(Oc2ccc(/N=C/c3ccc(Cl)cc3Cl)cc2Cl)cc1`?
GI50 (HCT-15): 23.8 µM; GI50 (SW-620): 33 µM (inactive); GI50 (ACHN): > 100 µM (inactive); GI50 (NCI-H522): 25.2 µM (inactive); GI50 (OVCAR-4): 44.5 µM (inactive); GI50 (UACC-62): 37.7 µM (inactive); GI50 (A549): 64.6 µM (inactive); GI50 (MDA-MB-231): 51.3 µM (inactive); GI50 (SN12C): 48.3 µM (inactive); GI50 (SNB-19): 41.6 µM (inactive); GI50 (SF-539): 23.6 µM (inactive); GI50 (SNB-75): 23.6 µM (inactive); GI50 (RPMI-8226): 9.2 µM (inactive); GI50 (SF-268): 31.8 µM (inactive); GI50 (CCRF-CEM): 4.29 µM (inactive); GI50 (HOP-62): 54.3 µM (inactive); GI50 (HCC 2998): > 100 µM (inactive); GI50 (T47D): 43.6 µM (inactive); GI50 (NCI-H23): 40.8 µM (inactive); GI50 (MCF7): 33.7 µM (inactive); GI50 (SF-295): 39.5 µM (inactive); GI50 (UO-31): 21.6 µM (inactive); GI50 (LOX IMVI): 28.3 µM (inactive); GI50 (U-251): 29.4 µM (inactive); GI50 (SK-MEL-2): 61.2 µM (inactive); GI50 (KM12): 29.5 µM (inactive); GI50 (HCT-116): 33 µM (inactive); GI50 (NCI/ADR-RES): 25.7 µM (inactive); GI50 (OVCAR-3): 33.8 µM (inactive); GI50 (SK-MEL-5): 36.1 µM (inactive); GI50 (SK-OV-3): 73.3 µM (inactive); GI50 (OVCAR-5): > 100 µM (inactive); GI50 (OVCAR-8): 41.2 µM (inactive); GI50 (COLO 205): 64.7 µM (inactive); GI50 (MOLT-4): 21.7 µM (inactive); GI50 (NCI-H226): > 100 µM (inactive); GI50 (HL-60): 9.2 µM (inactive); GI50 (MDA-N): 14.8 µM (inactive); GI50 (M14): 29.4 µM (inactive); GI50 (IGROV-1): 44.8 µM (inactive); GI50 (PC-3): 35 µM (inactive); GI50 (TK-10): > 100 µM (inactive); GI50 (HOP-92): 34.2 µM (inactive); GI50 (786-0): 22.4 µM (inactive); GI50 (BT-549): 29.2 µM (inactive); GI50 (HT-29): 36.9 µM (inactive); GI50 (SK-MEL-28): 34.2 µM (inactive); GI50 (Hs-578T): 25.9 µM (inactive); GI50 (CAKI-1): 36.5 µM (inactive); GI50 (Malme-3M): 27.3 µM (inactive); GI50 (NCI-H460): 63.7 µM (inactive); GI50 (EKVX): 30.1 µM (inactive); GI50 (MDA-MB-435): 18.5 µM (inactive); GI50 (UACC-257): 66.1 µM (inactive); GI50 (DU-145): 64.6 µM (inactive)
